Assay results as given in patent EP4644383A1 (Jiangsu Yahong Meditech Co., Ltd., priority 2022, dated 2024).
Like-named read-outs stand apart in the source and are kept apart here.

How the values were obtained:
FGFR1 = target: T1, FGFR1 (Homo sapiens, UniProt P11362); assay: FGFR1 kinase activity inhibition assay (LanthaScreen TR-FRET); assay type: biochemical
T1 construct: cytoplasmic domain [398-822 (terminal) amino acids]; purchased Carna 08-133
Protocol: (§1) PV3552) and 10 mM EDTA were added to quench the kinase reaction, and incubated at 22°C for 60 minutes. • ⑤ The reaction was measured using a PerkinElmer EnVision multimode plate reader through TR-FRET dual wavelength detection. • 1. The RFU values were copied from the Envision program. • 2. The ratio of RFU 520nm/RFU 495nm was calculated. • 3. The value of the ratio was converted to a percentage inhibition value. % Inhibition = (max-data)/(max-min) × 100 [formula] "Min" represents the ratio of the control without enzyme, "max" represents the ratio of the DMSO control, and "data" represents the ratio of the compounds in wells with different concentrations. […] "Top" refers to the maximum response, "Bottom" refers to the minimum response, and "HillSlope" refers to the slope of the curve.

FGFR3 = target: T2, FGFR3 (Homo sapiens, UniProt P22607); assay: FGFR3 kinase activity inhibition assay (LanthaScreen TR-FRET); assay type: biochemical; conditions: for Selectivity (X) FGFR1/FGFR3: ratio of IC50 FGFR1/FGFR3, selectivity towards FGFR3
T2 construct: FGFR3's cytoplasmic domain [436-806 (terminal) amino acids]; purchased Carna 08-135
T2 sequence (P22607 436-806): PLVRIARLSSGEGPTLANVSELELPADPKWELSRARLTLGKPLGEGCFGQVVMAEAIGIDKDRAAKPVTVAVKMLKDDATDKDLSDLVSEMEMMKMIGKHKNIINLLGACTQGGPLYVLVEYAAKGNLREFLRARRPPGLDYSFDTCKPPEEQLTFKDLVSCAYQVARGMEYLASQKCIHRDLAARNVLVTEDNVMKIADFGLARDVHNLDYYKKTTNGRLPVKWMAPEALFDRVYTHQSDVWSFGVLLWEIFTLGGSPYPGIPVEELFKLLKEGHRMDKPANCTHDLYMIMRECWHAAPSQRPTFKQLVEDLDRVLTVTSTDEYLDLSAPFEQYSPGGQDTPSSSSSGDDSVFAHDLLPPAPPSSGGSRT
Protocol: as §1, with “curve. According to the same method as that in the FGFR1 kinase activity inhibition assay, the inhibitory activities against FGFR2, FGFR3 and FGFR4 were tested using FGFR2's cytoplasmic domain [399-821 (terminal) amino acids] (Carna: 08-134), FGFR3's cytoplasmic domain [436-806 (terminal) amino acids] (Carna: 08-135) and FGFR4's cytoplasmic domain [460-802 (terminal) amino acids] (Carna: 08-136), respectively. […]” for “curve.”

[1] = FGFR1 kinase, TR-FRET, read-out: IC50 (nM) FGFR1
[2] = FGFR3 kinase, TR-FRET, read-out: IC50 (nM) FGFR3

T1 sequence (P11362 398-822): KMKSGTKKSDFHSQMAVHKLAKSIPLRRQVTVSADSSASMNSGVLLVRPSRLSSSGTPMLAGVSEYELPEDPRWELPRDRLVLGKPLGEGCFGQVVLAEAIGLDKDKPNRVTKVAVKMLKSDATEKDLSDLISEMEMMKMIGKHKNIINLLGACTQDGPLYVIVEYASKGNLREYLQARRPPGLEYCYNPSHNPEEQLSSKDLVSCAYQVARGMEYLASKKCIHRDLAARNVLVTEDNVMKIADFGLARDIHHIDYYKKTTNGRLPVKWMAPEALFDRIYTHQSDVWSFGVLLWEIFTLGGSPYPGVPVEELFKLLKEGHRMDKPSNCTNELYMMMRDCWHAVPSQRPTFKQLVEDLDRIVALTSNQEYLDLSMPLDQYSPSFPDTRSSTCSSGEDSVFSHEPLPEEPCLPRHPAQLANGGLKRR

Row | Molecule | IC50 (FGFR3; [2]) | Selectivity (X) FGFR1/FGFR3 (FGFR3) | other results
1 | C[C@@H](Oc1cc(C#N)c2[nH]nc(-c3cnn(C)c3)c2c1)c1c(Cl)cncc1Cl [Example 8] | > 100 nM | A (A represents 1 ≤ multiple X<20) | IC50 (FGFR1; [1]): > 100 nM
2 | CCCn1cc(-c2n[nH]c3c(F)cc(O[C@H](C)c4c(Cl)cncc4Cl)cc23)cn1 [Example 10] | – | A (A represents 1 ≤ multiple X<20) | IC50 (FGFR1): 10 to 100 nM; IC50 (FGFR3): 1 to 10 nM
3 | C[C@@H](Oc1cc(F)c2[nH]nc(-c3cnn(CCC4CCOCC4)c3)c2c1)c1c(Cl)cncc1Cl [Example 18, (R)-5-(1-(3,5-dichloropyridin-4-yl)ethoxy)-7-fluoro-3-(1-(2-(tetrahydro-2H-pyran-4-yl)ethyl)-1H-pyrazol-4-yl)-1H-indazole] | – | A (A represents 1 ≤ multiple X<20) | IC50 (FGFR1): 1 to 10 nM; IC50 (FGFR3): 1 to 10 nM
4 | COCCOCCn1cc(-c2n[nH]c3c(F)cc(O[C@H](C)c4c(Cl)cncc4Cl)cc23)cn1 [Example 21] | – | A (A represents 1 ≤ multiple X<20) | IC50 (FGFR1): > 100 nM; IC50 (FGFR3): 10 to 100 nM
5 | Cc1ccc2ncccc2c1C(CO)Oc1ccc2[nH]nc(-c3cnn(C)c3)c2c1 (stereo not drawn) [Example 114, 2-((3-(1-methyl-1H-pyrazol-4-yl)-1H-indazol-5-yl)oxy)-2-(6-methylquinolin-5-yl)ethan-1-ol] | > 100 nM | – | –
6 | Cc1ccc2ncccc2c1C(C)Sc1ccc2[nH]nc(-c3cnn(C)c3)c2c1 (stereo not drawn) [Example 115, 6-methyl-5-(1-((3-(1-methyl-1H-pyrazol-4-yl)-1H-indazol-5-yl)thio)ethyl)quinoline] | > 100 nM | – | –
7 | Cc1ccc2ncccc2c1C(C)Oc1cnc2[nH]nc(-c3cnn(C)c3)c2c1 (stereo not drawn) [Example 117, 6-methyl-5-(1-((3-(1-methyl-1H-pyrazol-4-yl)-1H-pyrazino[3,4-b]pyridin-5-yl)oxy)ethyl)quinoline] | – | – | IC50 (FGFR3): 10 to 100 nM
8 | Cc1ccc2ncccc2c1C(=O)Oc1ccc2[nH]nc(-c3cnn(C)c3)c2c1 [Example 118] | 10 to 100 nM | – | –
9 | Cc1ccc2ncccc2c1C(Oc1ccc2[nH]nc(-c3cnn(C)c3)c2c1)C(F)(F)F (stereo not drawn) [Example 121, 6-methyl-5-(2,2,2-trifluoro-1-((3-(1-methyl-1H-pyrazol-4-yl)-1H-indazol-5-yl)oxy)ethyl)quinoline] | > 100 nM | – | –
10 | Cc1ccc(C(C)Oc2ccc3[nH]nc(-c4cnn(C)c4)c3c2)c2cccnc12 (stereo not drawn) [Example 123, 8-methyl-5-(1-((3-(1-methyl-1H-pyrazol-4-yl)-1H-indazol-5-yl)oxy)ethyl)qu inoline] | > 100 nM | – | –
11 | Cc1ccc2ncccc2c1C(C)Oc1ccc2[nH]nc(-c3cn(C)nn3)c2c1 (stereo not drawn) [Example 165, 6-methyl-5-(1-((3-(1-methyl-1H-1,2,3-triazol-4-yl)-1H-indazol-5-yl)oxy)ethyl)qui noline] | 10 to 100 nM | – | –
12 | C#Cc1ccc2ncccc2c1C(C)Oc1ccc2[nH]nc(-c3cnn(C)c3)c2c1 (stereo not drawn) [Example 166, 6-ethynyl-5-(1-((3-(1-methyl-lH-pyrazol-4-yl)-1H-indazol-5-yl)oxy)ethyl)quinoline] | – | – | IC50 (FGFR3): 10 to 100 nM
13 | CC(Oc1ccc2[nH]nc(-c3cnn(C)c3)c2c1)c1c(Cl)ccc2ncccc12 (stereo not drawn) [Example 167, 6-chloro-5-(1-((3-(1-methyl-1H-pyrazol-4-yl)-1H-indazol-5-yl)oxy)ethyl)qu inoline] | 10 to 100 nM | – | –
14 | CC(Oc1ccc2[nH]nc(-c3cnn(C)c3)c2c1)c1c(C(F)(F)F)ccc2ncccc12 (stereo not drawn) [Example 172, 5-(1-((3-(1-methyl-1H-pyrazol-4-yl)-1H-indazol-5-yl)oxy)ethyl)-6-(trifluoromethyl)quinoline] | 10 to 100 nM | – | –
15 | CC(Oc1ccc2[nH]nc(-c3cnn(C)c3)c2c1)c1nc(C#N)cc2nccnc12 (stereo not drawn) [Example 235, 5-(1-((3-(1-methyl-1H-pyrazol-4-yl)-1H-indazol-5-yl)oxy)ethyl)pyridino[3,4-b]pyr azine-7-carbonitrile] | 10 to 100 nM | – | –

The next lines start with results.

Row | IC50 (FGFR3; [2]) | Selectivity (X) FGFR1/FGFR3 (FGFR3) | Molecule | other results
16 | < 1 nM | A (A represents 1 ≤ multiple X<20) | 7-methyl-5-(1-((3-(1-methyl-1H-pyrazol-4-yl)-1H-pyrazino[4,3-b]pyridin-5-yl)oxy)ethyl)pyridi no[3,4-b]pyrazine [Example 204] | IC50 (FGFR1; [1]): 1 to 10 nM
17 | 1 to 10 nM | A (A represents 1 ≤ multiple X<20) | CC(=O)N1CCC(n2cc(-c3n[nH]c4c(F)cc(O[C@H](C)c5c(Cl)cncc5Cl)cc34)cn2)CC1 [Example 13] | IC50 (FGFR1; [1]): 10 to 100 nM
18 | 1 to 10 nM | A (A represents 1 ≤ multiple X<20) | C[C@@H](Oc1cc(F)c2[nH]nc(-c3cnn(CC(N)=O)c3)c2c1)c1c(Cl)cncc1Cl [Example 16, (R)-2-(4-(5-(1-(3,5-dichloropyridin-4-yl)ethoxy)-7-fluoro-1H-indazol-3-yl)-1H-pyrazol-1-yl)acetamide] | IC50 (FGFR1; [1]): 10 to 100 nM
19 | 10 to 100 nM | A (A represents 1 ≤ multiple X<20) | C[C@@H](Oc1cc(F)c2[nH]nc(-c3cnn(CC(=O)N4CCOCC4)c3)c2c1)c1c(Cl)cncc1Cl [Example 19, (R)-2-(4-(5-(1-(3,5-dichloropyridin-4-yl)ethoxy)-7-fluoro-1H-indazol-3-yl)-1H-pyrazol-1-yl)-1-morpholinoetha n-1-one] | IC50 (FGFR1; [1]): 10 to 100 nM
20 | < 1 nM | A (A represents 1 ≤ multiple X<20) | COCCN(C)CCn1cc(-c2n[nH]c3c(F)cc(O[C@H](C)c4c(Cl)cncc4Cl)cc23)cn1 [Example 20, (R)-2-(4-(5-(1-(3,5-dichloropyridin-4-yl)ethoxy)-7-fluoro-1H-indazol-3-yl)-1H-pyrazol-1-yl)-N-(2-methoxyethyl)-N-methylethan-1-amine] | IC50 (FGFR1; [1]): 1 to 10 nM
21 | 1 to 10 nM | A (A represents 1 ≤ multiple X<20) | C[C@@H](Oc1cc(F)c2[nH]nc(-c3cnn(CCN4CCN(C)CC4)c3)c2c1)c1c(Cl)cncc1Cl [Example 22, (R)-5-(1-(3,5-dichloropyridin-4-yl)ethoxy)-7-fluoro-3-(1-(2-(4-methylpiperazin-1-yl)ethyl)-1H-pyrazol-4-yl)-1H-indazole] | IC50 (FGFR1; [1]): 10 to 100 nM
22 | 10 to 100 nM | – | CC(Oc1ccc2[nH]nc(-c3cnn(C)c3)c2c1)c1csc2ncccc12 (stereo not drawn) [Example 125, 3-(1-((3-(1-methyl-1H-pyrazol-4-yl)-1H-indazol-5-yl)oxy)ethyl)thi eno[2,3-b]pyridine] | –
23 | 1 to 10 nM | – | Cc1ccc2ncccc2c1C(C)Oc1cc2c(-c3cnn(C)c3)n[nH]c2cn1 (stereo not drawn) [Example 131] | –
24 | 10 to 100 nM | – | CC(Oc1ccc2[nH]nc(-c3cnn(C)c3)c2c1)c1cc(C(F)(F)F)cc2nccnc12 (stereo not drawn) [Example 137, 5-(1-((3-(1-methyl-1H-pyrazol-4-yl)-1H-indazol-5-yl)oxy)ethyl)-7-(trifluoromethyl)quinoxaline] | –
25 | 1 to 10 nM | – | C#Cc1cc(C(C)Oc2ccc3[nH]nc(-c4cnn(C)c4)c3c2)c2nccnc2c1 (stereo not drawn) [Example 146, 7-ethynyl-5-(1-((3-(1-methyl-1H-pyrazol-4-yl)-1H-indazol-5-yl)oxy)ethyl)quinoxa line] | –
26 | 10 to 100 nM | – | CC(Oc1ccc2[nH]nc(-c3cnn(C)c3)c2c1)c1cc(N(C)C)cc2ncccc12 (stereo not drawn) [Example 151] | –
27 | 1 to 10 nM | – | CC(Oc1ccc2[nH]nc(-c3ccc(S(C)(=N)=O)nc3)c2c1)c1cccc2nccnc12 (stereo not drawn) [Example 152, imino(methyl)(5-(5-(1-(quinoxalin-5-yl)ethoxy)-1H-indazol-3-yl)pyridin-2-yl)-sulfanone] | –
28 | < 1 nM | – | CC(Oc1ccc2[nH]nc(-c3ccc(N4CCS(=N)(=O)CC4)nc3)c2c1)c1cccc2nccnc12 (stereo not drawn) [Example 153] | –
29 | 1 to 10 nM | – | CC(Oc1ccc2[nH]nc(-c3cnn(C4CCS(=N)(=O)CC4)c3)c2c1)c1cccc2nccnc12 (stereo not drawn) [Example 154, 1-imino-4-(4-(5-(1-(quinoxalin-5-yl)ethoxy)-1H-indazol-3-yl)-1H-pyrazol-1-yl)hexahydro-thiopyran 1-oxide] | –
30 | 1 to 10 nM | – | CC(Oc1ccc2[nH]nc(-c3cnn(C)c3)c2c1)c1cc(C2CC2)cc2ncccc12 (stereo not drawn) [Example 164, 7-cyclopropyl-5-(1-((3-(1-methyl-1H-pyrazol-4-yl)-1H-indazol-5-yl)oxy)ethyl)qui noline] | –
31 | 1 to 10 nM | – | COc1cc(OC(C)c2nc(C)cc3nccnc23)cc2c(-c3cnn(C)c3)n[nH]c12 (stereo not drawn) [Example 231, 5-(1-((7-methoxy-3-(1-methyl-1H-pyrazol-4-yl)-1H-indazol-5-yl)oxy)ethyl)-7-methylpyrido[3,4-b]pyrazine] | –
